Experiments:
[1] = In vitro drug release from silicone tube devices loaded with lidocaine base tablets, with varying numbers of apertures; type: physicochemical; details: silicone tubes about 3 cm, payload about 60 mg, in vitro in water at about 37° C.
Protocol: Another study was performed to investigate the feasibility of delivering drug from a device through both a wall of a drug reservoir and from an aperture in the wall of the drug reservoir. Devices were formed form silicone tubes having a length of about 3 cm. The devices were loaded with solid drug tablets of lidocaine base, for a total payload of about 60 mg. […] The devices were tested in vitro in water at about 37° C.

[2] = In vitro drug release from silicone tube devices loaded with solid lidocaine tablets (diffusion through the wall of the drug reservoir); type: physicochemical; details: silicone tube ID about 0.060 in, OD 0.076 in, length about 3 cm, payload about 60 mg, no aperture; in vitro in water at about 37° C.
Protocol: A study was performed to determine the feasibility of delivering drug through the wall of a drug reservoir via diffusion. Devices were formed form silicone tubes having an inner diameter of about 0.060 inches, an outer diameter of 0.076 inches, and a length of about 3 cm. The devices were loaded with solid drug tablets of lidocaine, for a total payload of about 60 mg. Some of the devices included an aperture formed through the tube wall, the aperture having a diameter of 150 μm. These devices were loaded with solid tablets of either lidocaine hydrochloride monohydrate or a combination of lidocaine hydrochloride monohydrate and lidocaine base. […] The devices were tested in vitro in water at about 37° C.

For CCN(CC)CC(=O)Nc1c(C)cccc1C [lidocaine base, lidocaine], the “release from silicone tube without apertures” value ([1]; no apertures (ID 0.060/OD 0.076 in and ID 0.062/OD 0.095 in)) was “can be released from a silicone tube without any apertures”, the “effect of apertures on release rate” value ([1]; 0, 1 (150 μm), 2, 30 or 60 (360 μm) apertures) was “release rate can be increased by adding apertures to the device” and the “delivery of drug via diffusion through the silicone wall of the drug reservoir” value [2] was “feasible to deliver drug via diffusion through a silicone wall without an aperture”.

Reference: patent publication US12403086B2, “Solid drug tablets for implantable drug delivery devices” (TARIS Biomedical LLC, priority 2009, dated 2025)
